Counter-ions that a name gives are not always drawn. Where a SMILES comes first, the peptide text is derived from it. [ ]: non-standard residue; d: D form. The star is where a group is joined. Sta = CC(C)C[C@H](N)[C@@H](O)CC(=O)O; Isovaleryl = CC(C)CC(=O)*
test system: T1, 1N4R p-tau; assay: p-tau aggregation modulator screen of 1280-compound library (ThS fluorescence net change over 16 h); format: biochemical; settings: not given
T1 construct: made in house; host or cells: E. coli (PIMAX system)

Compound	ThS net change
CN(C)CCCN1c2ccccc2CCc2ccc(Cl)cc21 [Clomipramine hydrochloride]	307
CC(N)C(O)c1ccccc1 (stereo not shown) [Phenylpropanolamine hydrochloride]	395
CC[C@]12CCCN3CCc4c(n(c5ccccc45)C(=O)C1)[C@@H]32 [Eburnamonine (-)]	379
NC(=O)C[S+]([O-])C(c1ccccc1)c1ccccc1 (stereo not shown) [Modafinil]	413

same assay, conditions: 30 µM compound, 6 µM p-tau, 16 h

Compound	effect on p-tau aggregation in pilot screen
NCCc1ccc(O)c(O)c1 [Dopamine, reference compound]	none of them affected p-tau aggregation

same assay, conditions: 1280-compound library screen; ThS fluorescence net change over 16 h

Compound	ThS net change
Cl.Clc1ccc(C(OCCN2CCCCC2)c2ccccc2)cc1 (stereo not shown) [Cloperastine hydrochloride]	386
CCN(CC)C(=O)N1CCN(C)CC1 [Diethylcarbamazine citrate]	391
COc1ccc(C(=O)NCc2ccc(OCCN(C)C)cc2)cc1OC [Itopride]	405
COc1ccc2c(c1)c(CC(=O)O)c(C)n2C(=O)c1ccc(Cl)cc1 [Indomethacin]	386
NS(=O)(=O)c1cc(C2(O)NC(=O)c3ccccc32)ccc1Cl (stereo not shown) [Chlorthalidone]	382
O=C1CCc2cc(OCCCCc3nnnn3C3CCCCC3)ccc2N1 [Cilostazol]	397
OC[C@H]1O[C@@H](Oc2ccc(O)cc2)[C@H](O)[C@@H](O)[C@@H]1O [Arbutin]	409
O=C(O)Cc1ccc(-c2ccccc2)cc1 [Felbinac]	405
CC(C)CC(=O)N[C@H](C(=O)N[C@H](C(=O)N[C@@H](CC(C)C)[C@@H](O)CC(=O)N[C@@H](C)C(=O)N[C@@H](CC(C)C)[C@@H](O)CC(=O)O)C(C)C)C(C)C [Pepstatin A] (Isovaleryl-VV[Sta]A[Sta]-OH)	389
Cl.O=C(OCC(O)CO)c1ccccc1Nc1ccnc2cc(Cl)ccc12 (stereo not shown) [Glafenine hydrochloride]	412
CCCC1O[C@@H]2C[C@H]3[C@@H]4CCC5=CC(=O)C=C[C@]5(C)[C@H]4[C@@H](O)C[C@]3(C)[C@]2(C(=O)CO)O1 (stereo partly shown) [Budesonide]	389
CC(C)NCC(O)c1ccc2ccccc2c1.Cl (stereo not shown) [Pronethalol hydrochloride]	411

same assay, conditions: 1280-compound library screen; […]

Compound	ThS net change
C=C(C)[C@@H]1[C@H]2OC(=O)[C@@H]1[C@]1(O)C[C@H]3O[C@]34C(=O)O[C@H]2[C@]14C [Picrotoxinin]	390
CN1CCN(C(=O)OC2c3nccnc3C(=O)N2c2ccc(Cl)cn2)CC1 (stereo not shown) [Zopiclone]	407
CCCCCN(C)CCC(O)(P(=O)([O-])O)P(=O)(O)O.[Na+] [Ibandronate sodium]	394

same assay, conditions: library screen, ThS fluorescence net change over 16 h with p-tau

Compound	ThS net change
Clc1ccc(C(Cn2ccnc2)OCc2ccsc2Cl)c(Cl)c1 (stereo not shown) [Tioconazole]	309
CN1CCOC(c2ccccc2)c2ccccc2C1 (stereo not shown) [Nefopam hydrochloride]	324
Clc1ccc(C(Cn2ccnc2)OCc2c(Cl)cccc2Cl)c(Cl)c1 (stereo not shown) [Isoconazole]	296
CCCCC(CC)CNC(=N)NC(=N)NCCCCCCNC(=N)NC(=N)NCC(CC)CCCC (stereo not shown) [Alexidine dihydrochloride]	327
CC(NC(C)(C)C)C(=O)c1cccc(Cl)c1 (stereo not shown) [Bupropion hydrochloride]	278
CCCNCC(O)COc1ccccc1C(=O)CCc1ccccc1 (stereo not shown) [Propafenone hydrochloride]	317
C[C@]12C=CC(=O)C=C1CC[C@H]1[C@@H]3C[C@@H](O)[C@](O)(C(=O)CO)[C@@]3(C)C[C@H](O)[C@@]12F [Triamcinolone]	259

same assay, conditions: p-tau aggregation modulator screen of 1280-compound library; ThS fluorescence net change

Compound	ThS net change
CCN(CC)CCNC(=O)c1cc(Br)c(N)cc1OC [Bromopride]	373
Cl.N[C@@H]1CCCCN(c2c(F)cc3c(=O)c(C(=O)O)cn(C4CC4)c3c2Cl)C1 [Besifloxacin hydrochloride]	360
OCCN1CCN(CCCN2c3ccccc3Sc3ccc(C(F)(F)F)cc32)CC1 [Fluphenazine dihydrochloride]	370
Cc1ccc(C)c(OCCCC(C)(C)C(=O)O)c1 [Gemfibrozil]	353
Nc1nc(N)c2nc(-c3ccccc3)c(N)nc2n1 [Triamterene]	354
C(=C\c1ccccc1)/CN1CCN(C(c2ccccc2)c2ccccc2)CC1 [Cinnarizine]	356
COc1cc(Cc2cnc(N)nc2N)cc(OC)c1OC [Trimethoprim]	360
O=C1CCC(N2C(=O)c3ccccc3C2=O)C(=O)N1 (stereo not shown) [Thalidomide]	334
[H]/N=C(/N)N/C(=N/[H])NCCc1ccccc1 [Phenformin hydrochloride]	369
CCN1CCCC1CNC(=O)c1cc(S(N)(=O)=O)ccc1OC (stereo not shown) [Sulpiride]	373
CC1Cc2ccccc2N1NC(=O)c1ccc(Cl)c(S(N)(=O)=O)c1 (stereo not shown) [Indapamide]	347
CC1(C)S[C@@H]2[C@H](NC(=O)[C@H](N)c3ccccc3)C(=O)N2[C@H]1C(=O)O [Ampicillin trihydrate]	355
CCc1nc(N)nc(N)c1-c1ccc(Cl)cc1 [Pyrimethamine]	354
O=C(COc1ccc(Cl)cc1)N1CCN(Cc2ccc3c(c2)OCO3)CC1 [Fipexide hydrochloride]	359

same assay, conditions: p-tau aggregation modulator screen of 1280-compound library; […]

Compound	ThS net change
Cc1cccc(C)c1N=C1NCCCS1 [Xylazine]	366

same assay, conditions: p-tau aggregation modulator screen of the compound library, ThS fluorescence net change

Compound	ThS net change
Cc1c(O)cccc1C(=O)N[C@@H](CSc1ccccc1)[C@H](O)CN1C[C@H]2CCCC[C@H]2C[C@H]1C(=O)NC(C)(C)C [Nelfinavir mesylate]	563
C[C@@H]1CN([C@H]2CC[C@](C#N)(c3ccc(F)cc3)CC2)CC[C@]1(C(=O)O)c1ccccc1 [Levocabastine hydrochloride]	416
O=C(C1CCCCC1)N1CC(=O)N2CCc3ccccc3C2C1 (stereo not shown) [Praziquantel]	418
CCOC(=O)N1CCC(=C2c3ccc(Cl)cc3CCc3cccnc32)CC1 [Loratadine]	450
CC(C)(O)c1ccccc1CC[C@@H](SCC1(CC(=O)O)CC1)c1cccc(/C=C/c2ccc3ccc(Cl)cc3n2)c1 [Montelukast]	592
CCCCCCNC(=O)n1cc(F)c(=O)[nH]c1=O [Carmofur, 1-hexylcarbamoyl-5-fluorouracil]	1524
CC1/C=C/C=C/CC/C=C/C=C/C=C/C=C/C(O[C@@H]2O[C@H](C)[C@@H](O)[C@H](N)[C@@H]2O)CC(O)C(C(=O)O)C(O)CC(=O)CC(O)C(O)CCC(O)CC(O)CC(O)CC(=O)OC(C)C(C)C1O (stereo partly shown) [Nystatine]	446
Cc1onc(-c2c(F)cccc2Cl)c1C(=O)N[C@@H]1C(=O)N2[C@@H]1SC(C)(C)[C@@H]2C(=O)O [Flucloxacillin sodium]	443
CCCCc1nc(Cl)c(CO)n1Cc1ccc(-c2ccccc2-c2nn[nH]n2)cc1 [Losartan]	468
CCC1(C)CC(=O)NC1=O (stereo not shown) [Ethosuximide]	433
COc1ccc2[nH]c([S+]([O-])Cc3ncc(C)c(OC)c3C)nc2c1 (stereo not shown) [Omeprazole]	454
Cc1ccc(-c2cc(C(F)(F)F)nn2-c2ccc(S(N)(=O)=O)cc2)cc1 [Celecoxib]	429
CCOC(=O)O[C@]1(C(=O)COC(=O)CC)CC[C@H]2[C@@H]3CCC4=CC(=O)C=C[C@]4(C)[C@H]3[C@@H](O)C[C@@]21C [Prednicarbate, prednicarbate]	910
